Measured values reported in patent publication US11096923B2, “Pharmaceutical composition containing polymyxin B/trimethoprim based therapeutics” (University of Rochester, priority 2016, dated 2021).
Read-outs that look alike come from different tables or passages of the source.

Key:
P. aeruginosa = assay: MIC of clinical P. aeruginosa ocular isolates (antibiotic susceptibility profiles); type: cell-based, Pseudomonas aeruginosa; details: for MIC: Pseudomonas aeruginosa, read-out: Minimum Inhibitory Concentration
Text: A series of genotyping and biological assays were used as a preliminary means to evaluate the clonality of clinical P. aeruginosa isolates collected, as follows. Genomic DNA was purified from each isolate using Qiagen DNeasy kits (Hilden, Germany) and used as a template for polymerase chain reactions to detect the presence of the virulence factors exoS, exoY, exoU, exoT, and perV using previously published primers (Table 1). See Allewelt M, Coleman F T, Grout M, Priebe G P, Pier G B. Acquisition of expression of the Pseudomonas aeruginosa ExoU cytotoxin leads to increased bacterial virulence in a murine model of acute pneumonia and systemic spread. Infection and immunity 2000; 68:3998-4004, Lomholt J A, Poulsen K, Kilian M. Epidemic population structure of Pseudomonas aeruginosa: evidence for a clone that is pathogenic to the eye and that has a distinct combination of virulence factors. Infection and immunity 2001; 69, and Ledbetter E C, Mun J J, Kowbel D, Fleiszig S M. Pathogenic phenotype and genotype of Pseudomonas aeruginosa isolates from spontaneous canine ocular infections. Investigative ophthalmology & visual science 2009; 50. […] See Institute C. Performance Standards for Antimicrobial Susceptibility Testing: Twenty-fifth Informational Supplement. Each isolate's ability to form biofilms was quantified. To do so, wells of a polystyrene plate containing 72-hour established biofilms were washed with 0.8% NaCl to remove non adherent cells and stained with crystal violet. To quantify biofilm staining, plates were washed 3 times with H2O, stain was suspended in 30% glacial acetic acid and the optical density (OD600nm) of each well was determined using an automated plate reader, as previously described. See Jacobs A C, Blanchard C E, Catherman S C, Dunman P M, Murata Y. An ribonuclease T2 family protein modulates Acinetobacter baumannii abiotic surface colonization. PloS one 2014; 9.

S. aureus UAMS-1 = assay: Selleck library screen in presence of sub-inhibitory polymyxin B/trimethoprim; type: cell-based, Staphylococcus aureus; design: key: Growth (+); no growth (−); details: for S. aureus growth, 5 μM: drug 5 μM in presence of 1.2 μg ml^−1 polymyxin B/trimethoprim; for S. aureus growth, 50 μM: drug 50 μM in presence of 1.2 μg ml^−1 polymyxin B/trimethoprim
Method: (§1) To identify agents that potentiate the antimicrobial activity of polymyxin B/trimethoprim we first determined the highest concentration of the polymyxin B/trimethoprim combination that allowed growth of P. aeruginosa strain PAO1 and S. aureus strain UAMS-1.
For Selleck library screening, individual wells of 96-well microtiter plates containing 88 μl of fresh media were inoculated with approximately 10^5 CFUs of P. aeruginosa strain PAO1 or S. aureus UAMS-1. Next, 2 μl of polymyxin B/trimethoprim was added to a final concentration of 0.2 μg ml^−1 or 1.25 μg ml^−1 for PA01 and UAMS-1, respectively. Library members were then added at either 5 μM or 50 μM final concentration. Plates were incubated at 37° C. for 16 hours and hits were identified as wells with no visible growth.
To do so, 10^5 CFUs of S. aureus strain UAMS-1 were inoculated in individual wells of a microtiter plate supplemented with 1.2 μg ml^−1 of polymyxin B/trimethoprim, (0.25×MIC). Library members were added at low (5 μM) or high (50 μM) concentrations and then scored for agents that inhibited growth following overnight incubation. Such agents were expected to represent compounds that display antimicrobial activity on their own and/or that potentiate the antimicrobial activity of polymyxin B/trimethoprim.

P. aeruginosa PAO1 = assay: as above; type: cell-based, Pseudomonas aeruginosa; design: key: Growth (+); no growth (−); details: for P. aeruginosa growth, 5 μM: drug 5 μM in presence of 0.2 μg ml^−1 polymyxin B/trimethoprim; for P. aeruginosa growth, 50 μM: drug 50 μM in presence of 0.2 μg ml^−1 polymyxin B/trimethoprim
Method: as §1
For Selleck library screening, individual wells of 96-well microtiter plates containing 88 μl of fresh media were inoculated with approximately 10^5 CFUs of P. aeruginosa strain PAO1 or S. aureus UAMS-1. Next, 2 μl of polymyxin B/trimethoprim was added to a final concentration of 0.2 μg ml^−1 or 1.25 μg ml^−1 for PA01 and UAMS-1, respectively. Library members were then added at either 5 μM or 50 μM final concentration. Plates were incubated at 37° C. for 16 hours and hits were identified as wells with no visible growth. […]

P. aeruginosa biofilm = test system: P. aeruginosa biofilm; design: key: Killing (+) of established biofilms; details: established biofilms; adenylate kinase reporter; Blanchard et al., 2016; cited from earlier work
[1] = P. aeruginosa ocular isolate RW01 (cornea)
[2] = P. aeruginosa ocular isolate RW02 (cornea)
[3] = P. aeruginosa ocular isolate RW03 (cornea)
[4] = P. aeruginosa ocular isolate RW04 (conjunctiva)
[5] = P. aeruginosa ocular isolate RW05 (cornea)
[6] = P. aeruginosa ocular isolate RW06 (cornea)
[7] = P. aeruginosa ocular isolate RW07 (cornea)

Compound CC1(C)S[C@@H]2[C@H](NC(=O)[C@H](N)c3ccccc3)C(=O)N2[C@H]1C(=O)O [Ampicillin, ampicillin] has an MIC (P. aeruginosa; [1]) of 50 µg/mL, an MIC (P. aeruginosa; [2]) of 50 µg/mL and an MIC (P. aeruginosa; [3]) of 50 µg/mL. The MIC (P. aeruginosa; [4]) was 50 µg/mL, the MIC (P. aeruginosa; [5]) was 100 µg/mL and the MIC (P. aeruginosa; [6]) was 100 µg/mL. For the same compound, the MIC (P. aeruginosa; [7]) was 50 µg/mL.
CO/N=C(\C(=O)N[C@@H]1C(=O)N2C(C(=O)O)=C(CSc3nc(=O)c(=O)[nH]n3C)CS[C@H]12)c1csc(N)n1 [Ceftriaxone, ceftriaxone] gave an MIC (P. aeruginosa; [1]) of 13 µg/mL, an MIC (P. aeruginosa; [2]) of 26 µg/mL and an MIC (P. aeruginosa; [3]) of 26 µg/mL. For the same compound, the MIC (P. aeruginosa; [4]) was 26 µg/mL, the MIC (P. aeruginosa; [5]) was 13 µg/mL and the MIC (P. aeruginosa; [6]) was 52 µg/mL. The MIC (P. aeruginosa; [7]) was 26 µg/mL.
For NC1CCN(c2c(F)cc3c(=O)c(C(=O)O)cn(C4CC4)c3c2Cl)C1 (stereo not drawn) [Clinafloxacin, clinafloxacin], the “S. aureus growth, 5 μM” value (S. aureus UAMS-1) was “−”, the “S. aureus growth, 50 μM” value (S. aureus UAMS-1) was “−” and the “P. aeruginosa growth, 5 μM” value (P. aeruginosa PAO1) was “−”. For the same compound, the “P. aeruginosa growth, 50 μM” value (P. aeruginosa PAO1) was “−” and the “P. aeruginosa biofilm AK Signal” value (P. aeruginosa biofilm) was “+”.
In the case of CN1C[C@@H]2C[C@H]1CN2c1cc2c(cc1F)c(=O)c(C(=O)O)cn2C1CC1 [Danofloxacin, danofloxacin], the “S. aureus growth, 5 μM” value (S. aureus UAMS-1) is reported as “−”, the “S. aureus growth, 50 μM” value (S. aureus UAMS-1) is reported as “−” and the “P. aeruginosa growth, 5 μM” value (P. aeruginosa PAO1) is reported as “−”. The “P. aeruginosa growth, 50 μM” value (P. aeruginosa PAO1) was “−” and the “P. aeruginosa biofilm AK Signal” value (P. aeruginosa biofilm) was “+”.
In the case of CCN1CCN(c2cc3c(cc2F)c(=O)c(C(=O)O)cn3C2CC2)CC1 [Enrofloxacin, enrofloxacin], the “S. aureus growth, 5 μM” value (S. aureus UAMS-1) is reported as “−”, the “S. aureus growth, 50 μM” value (S. aureus UAMS-1) is reported as “−” and the “P. aeruginosa growth, 5 μM” value (P. aeruginosa PAO1) is reported as “−”. For the same compound, the “P. aeruginosa growth, 50 μM” value (P. aeruginosa PAO1) was “−” and the “P. aeruginosa biofilm AK Signal” value (P. aeruginosa biofilm) was “+”.
In the case of C[C@H]1COc2c(N3CCN(C)CC3)c(F)cc3c(=O)c(C(=O)O)cn1c23 [Levofloxacin, levofloxacin], the “S. aureus growth, 5 μM” value (S. aureus UAMS-1) is reported as “+”, the “S. aureus growth, 50 μM” value (S. aureus UAMS-1) is reported as “−” and the “P. aeruginosa growth, 5 μM” value (P. aeruginosa PAO1) is reported as “−”. For the same compound, the “P. aeruginosa growth, 50 μM” value (P. aeruginosa PAO1) was “−”.
For CCn1cc(C(=O)O)c(=O)c2cc(F)c(N3CCNC(C)C3)c(F)c21 (stereo not drawn) [Lomefloxacin, lomefloxacin], the “S. aureus growth, 5 μM” value (S. aureus UAMS-1) was “−”, the “S. aureus growth, 50 μM” value (S. aureus UAMS-1) was “−” and the “P. aeruginosa growth, 5 μM” value (P. aeruginosa PAO1) was “−”. The “P. aeruginosa growth, 50 μM” value (P. aeruginosa PAO1) was “−” and the “P. aeruginosa biofilm AK Signal” value (P. aeruginosa biofilm) was “+”.
With CC1CCc2c(N3CCC(O)CC3)c(F)cc3c(=O)c(C(=O)O)cn1c23 (stereo not drawn) [Nadifloxacin, nadifloxacin] the “S. aureus growth, 5 μM” value (S. aureus UAMS-1) was “−”, the “S. aureus growth, 50 μM” value (S. aureus UAMS-1) was “−” and the “P. aeruginosa growth, 5 μM” value (P. aeruginosa PAO1) was “−”. The “P. aeruginosa growth, 50 μM” value (P. aeruginosa PAO1) was “−” and the “P. aeruginosa biofilm AK Signal” value (P. aeruginosa biofilm) was “+”.
For CCn1cc(C(=O)O)c(=O)c2cc(F)c(N3CCN(C)CC3)cc21 [Pefloxacin, pefloxacin], the “S. aureus growth, 5 μM” value (S. aureus UAMS-1) was “−”, the “S. aureus growth, 50 μM” value (S. aureus UAMS-1) was “−” and the “P. aeruginosa growth, 5 μM” value (P. aeruginosa PAO1) was “−”. The “P. aeruginosa growth, 50 μM” value (P. aeruginosa PAO1) was “−” and the “P. aeruginosa biofilm AK Signal” value (P. aeruginosa biofilm) was “+”.
With CO[C@H]1/C=C/O[C@@]2(C)Oc3c(C)c(O)c4c(c3C2=O)C2=NC3(CCN(CC(C)C)CC3)NC2=C(NC(=O)/C(C)=C\C=C\[C@H](C)[C@H](O)[C@@H](C)[C@@H](O)[C@@H](C)[C@H](OC(C)=O)[C@@H]1C)C4=O [Rifabutin, rifabutin] the “S. aureus growth, 5 μM” value (S. aureus UAMS-1) was “−”, the “S. aureus growth, 50 μM” value (S. aureus UAMS-1) was “−” and the “P. aeruginosa growth, 5 μM” value (P. aeruginosa PAO1) was “−”. The “P. aeruginosa growth, 50 μM” value (P. aeruginosa PAO1) was “−” and the “P. aeruginosa biofilm AK Signal” value (P. aeruginosa biofilm) was “+”.
For CO[C@H]1/C=C/O[C@@]2(C)Oc3c(C)c(O)c4c(O)c(c(/C=N/N5CCN(C6CCCC6)CC5)c(O)c4c3C2=O)NC(=O)/C(C)=C\C=C\[C@H](C)[C@H](O)[C@@H](C)[C@@H](O)[C@@H](C)[C@H](OC(C)=O)[C@@H]1C [Rifapentine, rifapentine], the “S. aureus growth, 5 μM” value (S. aureus UAMS-1) was “−”, the “S. aureus growth, 50 μM” value (S. aureus UAMS-1) was “−” and the “P. aeruginosa growth, 5 μM” value (P. aeruginosa PAO1) was “−”. The “P. aeruginosa growth, 50 μM” value (P. aeruginosa PAO1) was “−” and the “P. aeruginosa biofilm AK Signal” value (P. aeruginosa biofilm) was “+”.
In the case of CO[C@H]1/C=C/O[C@@]2(C)Oc3c(C)c(O)c4c(O)c(c5c(nc6cc(C)ccn65)c4c3C2=O)NC(=O)/C(C)=C\C=C\[C@H](C)[C@H](O)[C@@H](C)[C@@H](O)[C@@H](C)[C@H](OC(C)=O)[C@@H]1C [Rifaximin, rifaximin], the “S. aureus growth, 5 μM” value (S. aureus UAMS-1) is reported as “−”, the “S. aureus growth, 50 μM” value (S. aureus UAMS-1) is reported as “−” and the “P. aeruginosa growth, 5 μM” value (P. aeruginosa PAO1) is reported as “−”. For the same compound, the “P. aeruginosa growth, 50 μM” value (P. aeruginosa PAO1) was “−” and the “P. aeruginosa biofilm AK Signal” value (P. aeruginosa biofilm) was “+”.
In the case of O=C(O)c1cn(-c2ccc(F)cc2)c2cc(N3CCNCC3)c(F)cc2c1=O [Sarafloxacin, sarafloxacin], the “S. aureus growth, 5 μM” value (S. aureus UAMS-1) is reported as “−”, the “S. aureus growth, 50 μM” value (S. aureus UAMS-1) is reported as “−” and the “P. aeruginosa growth, 5 μM” value (P. aeruginosa PAO1) is reported as “−”. The “P. aeruginosa growth, 50 μM” value (P. aeruginosa PAO1) was “−” and the “P. aeruginosa biofilm AK Signal” value (P. aeruginosa biofilm) was “+”.
For N[C@@H]1CN(c2c(F)cc3c(=O)c(C(=O)O)cn([C@@H]4C[C@@H]4F)c3c2Cl)CC12CC2 [Sitafloxacin, sitafloxacin], the “S. aureus growth, 5 μM” value (S. aureus UAMS-1) was “−”, the “S. aureus growth, 50 μM” value (S. aureus UAMS-1) was “−” and the “P. aeruginosa growth, 5 μM” value (P. aeruginosa PAO1) was “−”. For the same compound, the “P. aeruginosa growth, 50 μM” value (P. aeruginosa PAO1) was “−” and the “P. aeruginosa biofilm AK Signal” value (P. aeruginosa biofilm) was “+”.
With gentamycin the “Minimum Inhibitory Concentration” value (P. aeruginosa; [1]) was 0.24 µg/mL, the “Minimum Inhibitory Concentration” value (P. aeruginosa; [2]) was 0.24 µg/mL and the “Minimum Inhibitory Concentration” value (P. aeruginosa; [3]) was 0.12 µg/mL. The “Minimum Inhibitory Concentration” value (P. aeruginosa; [4]) was 0.48 µg/mL, the “Minimum Inhibitory Concentration” value (P. aeruginosa; [5]) was 0.48 µg/mL and the “Minimum Inhibitory Concentration” value (P. aeruginosa; [6]) was 0.48 µg/mL. For the same compound, the “Minimum Inhibitory Concentration” value (P. aeruginosa; [7]) was 0.24 µg/mL.
With neomycin the “Minimum Inhibitory Concentration” value (P. aeruginosa; [1]) was 9.8 µg/mL, the “Minimum Inhibitory Concentration” value (P. aeruginosa; [2]) was 9.8 µg/mL and the “Minimum Inhibitory Concentration” value (P. aeruginosa; [3]) was 9.8 µg/mL. For the same compound, the “Minimum Inhibitory Concentration” value (P. aeruginosa; [4]) was 19.6 µg/mL, the “Minimum Inhibitory Concentration” value (P. aeruginosa; [5]) was 1 µg/mL and the “Minimum Inhibitory Concentration” value (P. aeruginosa; [6]) was 9.8 µg/mL. The “Minimum Inhibitory Concentration” value (P. aeruginosa; [7]) was 1 µg/mL.
